This is an account of results in patent publication EP3875456A1, “HETERO-BIFUNCTIONAL PROTEOLYSIS-TARGETING CHIMERAS (PROTACS) FOR THE SELECTIVE DEGRADATION OF FK506-BINDING PROTEINS (FKBPS)” (Technische Universität Darmstadt, priority 2020, dated 2021).

The target in the experiment is T1, FKBP51FK1 (Homo sapiens, UniProt Q13451).
T1 construct: FKBP51FK1
T1 sequence (Q13451 42-130 limits assumed): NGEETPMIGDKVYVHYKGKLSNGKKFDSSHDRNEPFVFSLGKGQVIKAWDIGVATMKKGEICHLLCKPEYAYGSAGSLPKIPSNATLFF
The experiment can be described thus: Binding affinities of exemplary compounds to FKBP51. On the procedure: Binding to FKBP51 is an important prerequisite in order to allow degradation of FKBP51. Thus, the binding affinities of the newly synthesized molecules (table 1) were tested.
As usually defined, the Ki is a measure of affinity in units of concentration, obtained from inhibition or displacement. `COc1ccc(CC[C@H](OC(=O)[C@H]2CCCCN2C(=O)[C@H](c2cc(OC)c(OC)c(OC)c2)C2CCCCC2)c2cccc(OCc3cn(CCOCC(=O)N[C@H](C(=O)N4C[C@H](O)C[C@H]4C(=O)NCc4ccc(-c5scnc5C)cc4)C(C)(C)C)nn3)c2)cc1OC` (stereo in doubt) [MTQ199, (S)-(R)-3-(3,4-Dimethoxyphenyl)-1-(3-((1-(2-(2-(((S)-1-((2S,4R)-4-hydroxy-2-((4-(4-methylthiazol-5-yl)benzyl)carbamoyl)pyrrolidin-1-yl)-3,3-dimethyl-1-oxobutan-2-yl)amino)-2-oxoethoxy)ethyl)-1H-1,2,3-triazol-4-yl)methoxy)phenyl)propyl 1-((S)-2-cyclohexyl-2-(3,4,5-trimethoxyphenyl)acetyl)piperidine-2-carboxylate] came in with a Ki of 25 ± 6 nM. As for `C#CCOc1cccc([C@H](CCc2ccc(OC)c(OC)c2)OC(=O)[C@H]2CCCCN2C(=O)[C@H](c2cc(OC)c(OC)c(OC)c2)C2CCCCC2)c1` (stereo in doubt) [Molecule (9), (S)-(R)-3-(3,4-Dimethoxyphenyl)-1-(3-(prop-2-yn-1-yloxy)phenyl)propyl 1-((S)-2-cyclohexyl-2-(3,4,5-trimethoxyphenyl)acetyl)piperidine-2-carboxylate], the Ki turned out to be 32 ± 7 nM. On to `C#CCOc1cc(CCC(OC(=O)C2CCCCN2C(=O)[C@H](c2cc(OC)c(OC)c(OC)c2)C2CCCCC2)c2cccc(OC)c2)ccc1OC` (stereo in doubt) [Molecule (10), (S)-(R)-3-(4-methoxy-3-(prop-2-yn-1-yloxy)phenyl)-1-(3-methoxyphenyl)propyl 1-((S)-2-cyclohexyl-2-(3,4,5-trimethoxyphenyl)acetyl)piperidine-2-carboxylate], for which the Ki turned out to be 149 ± 39 nM.

Turning to `COc1ccc(CC[C@@H](OC(=O)[C@@H]2CCCCN2C(=O)[C@H](c2cc(OC)c(OC)c(OC)c2)C2CCCCC2)c2cccc(OCc3cn(CCOCCOCC(=O)N[C@H](C(=O)N4C[C@H](O)C[C@H]4C(=O)NCc4ccc(-c5scnc5C)cc4)C(C)(C)C)nn3)c2)cc1OC` [MTQ200], the affinity corresponds to a Ki of 24 ± 7 nM. Next, `COc1ccc(CC[C@H](OC(=O)[C@H]2CCCCN2C(=O)[C@H](c2cc(OC)c(OC)c(OC)c2)C2CCCCC2)c2cccc(OCc3cn(CCOCCOCCOCC(=O)N[C@H](C(=O)N4C[C@H](O)C[C@H]4C(=O)NCc4ccc(-c5scnc5C)cc4)C(C)(C)C)nn3)c2)cc1OC` [MTQ201, (S)-(R)-3-(3,4-Dimethoxyphenyl)-1-(3-((1-((S)-13-((2S,4R)-4-hydroxy-2-((4-(4-methylthiazol-5-yl)benzyl)carbamoyl)pyrrolidine-1-carbonyl)-14,14-dimethyl-11-oxo-3,6,9-trioxa-12-azapentadecyl)-1H-1,2,3-triazol-4-yl)methoxy)phenyl)propyl 1-((S)-2-cyclohexyl-2-(3,4,5-trimethoxyphenyl)acetyl)piperidine-2-carboxylate]: 23 ± 7 nM; `COc1ccc(CC[C@H](OC(=O)[C@H]2CCCCN2C(=O)[C@H](c2cc(OC)c(OC)c(OC)c2)C2CCCCC2)c2cccc(OCc3cn(CCOCCOCCOCCOCCOCC(=O)N[C@H](C(=O)N4C[C@H](O)C[C@H]4C(=O)NCc4ccc(-c5scnc5C)cc4)C(C)(C)C)nn3)c2)cc1OC` [MTQ203, (S)-(R)-3-(3,4-Dimethoxyphenyl)-1-(3-((1-((S)-19-((2S,4R)-4-hydroxy-2-((4-(4-methylthiazol-5-yl)benzyl)carbamoyl)pyrrolidine-1-carbonyl)-20,20-dimethyl-17-oxo-3,6,9,12,15-pentaoxa-18-azahenicosyl)-1H-1,2,3-triazol-4-yl)methoxy)phenyl)propyl 1-((S)-2-cyclohexyl-2-(3,4,5-trimethoxyphenyl)acetyl)piperidine-2-carboxylate]: 12 ± 3 nM. Next, `COc1ccc(CC[C@@H](OC(=O)[C@@H]2CCCCN2C(=O)[C@H](c2cc(OC)c(OC)c(OC)c2)C2CCCCC2)c2cccc(OCc3cn(CCOCC(=O)Nc4cccc5c4C(=O)N(C4CCC(=O)NC4=O)C5=O)nn3)c2)cc1OC` (stereo partly drawn) [MTQ204, (25)-(1R)-3-(3,4-Dimethoxyphenyl)-1-(3-((1-(2-(2-((2-(2,6-dioxopiperidin-3-yl)-1,3-dioxoisoindolin-4-yl)amino)-2-oxoethoxy)ethyl)-1H-1,2,3-triazol-4-yl)methoxy)phenyl)propyl1-((S)-2-cyclohexyl-2-(3,4,5-trimethoxyphenyl)acetyl)piperidine-2-carboxylate]: 19 ± 5 nM. In the case of `COc1ccc(CC[C@@H](OC(=O)[C@@H]2CCCCN2C(=O)[C@H](c2cc(OC)c(OC)c(OC)c2)C2CCCCC2)c2cccc(OCc3cn(CCOCCOCC(=O)Nc4cccc5c4C(=O)N(C4CCC(=O)NC4=O)C5=O)nn3)c2)cc1OC` (stereo partly drawn) [MTQ205, (2S)-(1R)-3-(3,4-Dimethoxyphenyl)-1-(3-((1-(2-(2-(2-((2-(2,6-dioxopiperidin-3-yl)-1,3-dioxoisoindolin-4-yl)amino)-2-oxoethoxy)ethoxy)ethyl)-1H-1,2,3-triazol-4-yl)methoxy)phenyl)propyl 1-((S)-2-cyclohexyl-2-(3,4,5-trimethoxyphenyl)acetyl)piperidine-2-carboxylate], affinity was put at a Ki of 16 ± 5 nM. Compound `COc1ccc(CC[C@@H](OC(=O)[C@@H]2CCCCN2C(=O)[C@H](c2cc(OC)c(OC)c(OC)c2)C2CCCCC2)c2cccc(OCc3cn(CCOCCOCCOCC(=O)Nc4cccc5c4C(=O)N(C4CCC(=O)NC4=O)C5=O)nn3)c2)cc1OC` (stereo partly drawn) [MTQ206, (2S)-(1R)-3-(3,4-Dimethoxyphenyl)-1-(3-((1-(2-(2-(2-(2-((2-(2,6-dioxopiperidin-3-yl)-1,3-dioxoisoindolin-4-yl)amino)-2-oxoethoxy)ethoxy)ethoxy)ethyl)-1H-1,2,3-triazol-4-yl)methoxy)phenyl)propyl 1-((S)-2-cyclohexyl-2-(3,4,5-trimethoxyphenyl)acetyl)piperidine-2-carboxylate] showed a Ki of 22 ± 6 nM. `COc1ccc(CC[C@@H](OC(=O)[C@@H]2CCCCN2C(=O)[C@H](c2cc(OC)c(OC)c(OC)c2)C2CCCCC2)c2cccc(OCc3cn(CCOCCOCCOCCOCC(=O)Nc4cccc5c4C(=O)N(C4CCC(=O)NC4=O)C5=O)nn3)c2)cc1OC` (stereo partly drawn) [MTQ207, (2S)-(1R)-3-(3,4-Dimethoxyphenyl)-1-(3-((1-(14-((2-(2,6-dioxopiperidin-3-yl)-1,3-dioxoisoindolin-4-yl)amino)-14-oxo-3,6,9,12-tetraoxatetradecyl)-1H-1,2,3-triazol-4-yl)methoxy)phenyl)propyl 1-((S)-2-cyclohexyl-2-(3,4,5-trimethoxyphenyl)acetyl)piperidine-2-carboxylate] gave a Ki of 18 ± 4 nM. In the case of `COc1ccc(CC[C@@H](OC(=O)[C@@H]2CCCCN2C(=O)[C@H](c2cc(OC)c(OC)c(OC)c2)C2CCCCC2)c2cccc(OCc3cn(CCOCCOCCOCCOCCOCC(=O)Nc4cccc5c4C(=O)N(C4CCC(=O)NC4=O)C5=O)nn3)c2)cc1OC` (stereo partly drawn) [MTQ208, (2S)-(1R)-3-(3,4-Dimethoxyphenyl)-1-(3-((1-(17-((2-(2,6-dioxopiperidin-3-yl)-1,3-dioxoisoindolin-4-yl)amino)-17-oxo-3,6,9,12,15-pentaoxaheptadecyl)-1H-1,2,3-triazol-4-yl)methoxy)phenyl)propyl 1-((S)-2-cyclohexyl-2-(3,4,5-trimethoxyphenyl)acetyl)piperidine-2-carboxylate], the Ki is 5 ± 1 nM. Next, `COc1cccc([C@H](CCc2ccc(OCc3cn(CCOCC(=O)N[C@H](C(=O)N4C[C@H](O)C[C@H]4C(=O)NCc4ccc(-c5scnc5C)cc4)C(C)(C)C)nn3)c(OC)c2)OC(=O)[C@H]2CCCCN2C(=O)[C@H](c2cc(OC)c(OC)c(OC)c2)C2CCCCC2)c1` [MTQ328, (S)-(R)-3-(4-((1-(2-(2-(((S)-1-((2S,4R)-4-Hydroxy-2-((4-(4-methylthiazol-5-yl)benzyl)carbamoyl)pyrrolidin-1-yl)-3,3-dimethyl-1-oxobutan-2-yl)amino)-2-oxoethoxy)ethyl)-1H-1,2,3-triazol-4-yl)methoxy)-3-methoxyphenyl)-1-(3-methoxyphenyl)propyl 1-((S)-2-cyclohexyl-2-(3,4,5-trimethoxyphenyl)acetyl)piperidine-2-carboxylate]: 47 ± 19 nM; `COc1cccc([C@H](CCc2ccc(OCc3cn(CCOCCOCC(=O)N[C@H](C(=O)N4C[C@H](O)C[C@H]4C(=O)NCc4ccc(-c5scnc5C)cc4)C(C)(C)C)nn3)c(OC)c2)OC(=O)[C@H]2CCCCN2C(=O)[C@H](c2cc(OC)c(OC)c(OC)c2)C2CCCCC2)c1` [MTQ329, (S)-(R)-3-(4-((1-(2-(2-(2-(((S)-1-((2S,4R)-4-Hydroxy-2-((4-(4-methylthiazol-5-yl)benzyl)carbamoyl)pyrrolidin-1-yl)-3,3-dimethyl-1-oxobutan-2-yl)amino)-2-oxoethoxy)ethoxy)ethyl)-1H-1,2,3-triazol-4-yl)methoxy)-3-methoxyphenyl)-1-(3-methoxyphenyl)propyl 1-((S)-2-cyclohexyl-2-(3,4,5-trimethoxyphenyl)acetyl)piperidine-2-carboxylate]: 60 ± 16 nM; `COc1cccc([C@H](CCc2ccc(OCc3cn(CCOCCOCCOCC(=O)N[C@H](C(=O)N4C[C@H](O)C[C@H]4C(=O)NCc4ccc(-c5scnc5C)cc4)C(C)(C)C)nn3)c(OC)c2)OC(=O)[C@H]2CCCCN2C(=O)[C@H](c2cc(OC)c(OC)c(OC)c2)C2CCCCC2)c1` [MTQ330, (S)-(R)-3-(4-((1-((S)-13-((2S,4R)-4-Hydroxy-2-((4-(4-methylthiazol-5-yl)benzyl)carbamoyl)pyrrolidine-1-carbonyl)-14,14-dimethyl-11-oxo-3,6,9-trioxa-12-azapentadecyl)-1H-1,2,3-triazol-4-yl)methoxy)-3-methoxyphenyl)-1-(3-methoxyphenyl)propyl 1-((S)-2-cyclohexyl-2-(3,4,5-trimethoxyphenyl)acetyl)piperidine-2-carboxylate]: 86 ± 26 nM.
